# Test results from article PMC7126309 (Bioorganic & Medicinal Chemistry, 2010).
# Target: SARS-CoV 3CL^pro (Severe acute respiratory syndrome coronavirus, UniProt P0C6X7)
# Format: biochemical
row,SMILES,Inhibition type
1,"O=c1cc(-c2ccc(O)c(-c3c(O)cc(O)c4c(=O)cc(-c5ccc(O)cc5)oc34)c2)oc2cc(O)cc(O)c12 [Compound 9, amentoflavone]",Noncompetitive (13.8 ± 1.5)
2,"COc1ccc(-c2cc(=O)c3c(O)cc(O)cc3o2)cc1-c1c(O)cc(O)c2c(=O)cc(-c3ccc(O)cc3)oc12 [Compound 10, bilobetin]",Noncompetitive (80.4 ± 4.0)
3,"COc1cc(O)c2c(=O)cc(-c3ccc(OC)c(-c4c(O)cc(O)c5c(=O)cc(-c6ccc(O)cc6)oc45)c3)oc2c1 [Compound 11, ginkgetin]",Noncompetitive (30.2 ± 2.6)
4,"COc1ccc(-c2cc(=O)c3c(O)cc(O)c(-c4cc(-c5cc(=O)c6c(O)cc(OC)cc6o5)ccc4OC)c3o2)cc1 [Compound 12, sciadopitysin]",Noncompetitive (35.6 ± 1.1)
